Data published in patent US12448655B2, “Antibiotic susceptibility of microorganisms and related methods and systems” (CALIFORNIA INSTITUTE OF TECHNOLOGY, priority 2017, dated 2025).

Columns and labels:
[1] = system: Escherichia coli; test: Minimum inhibitory concentrations (MICs) of Enterobacteriaceae clinical isolates; format: cell-based
Excerpt: (§1) Clinical isolates referenced, minimum inhibitory concentrations (MICs), and categorical susceptibility based on CLSI breakpoints The below list of organisms are examples of clinically-relevant susceptible and resistant Enterobacteriaceae clinical isolates. Minimum inhibitory concentrations (MICs) are provided in μg/mL for the antibiotics listed.
(§2) Isolates, growth conditions, and antibiotic exposure conditions. 25 de-identified clinical isolates were obtained from the UCLA Clinical Microbiology Laboratory (CML) and the CDC's Enterobacteriaceae Carbapenem Breakpoint panel. In the case of isolates obtained from the UCLA CML, MICs were determined as described previously. Genotypic testing of the two Ec and two Kp isolates selected for their lack of known β-lactamase genes was performed by UCLA CML using a previously published assay and separately at the Keck School of Medicine of USC using the FDA-approved Cepheid Xpert® Carba-R test. Whole genome sequencing of the single Ebs isolate selected for its lack of known resistance genes was performed by the CDC [3]. All isolates were stored as glycerol stocks at −80° C. Glycerol stocks were streaked onto Trypticase Soy Agar with 5% sheep's blood (Becton Dickinson, Franklin Lakes, NJ, USA) and grown overnight at 37° C. Prior to experiments, a small clump of cells was resuspended in 2 mL Brain Heart Infusion Broth (BHI, Becton Dickinson) at 37° C.+5% CO2 with 500 rpm shaking for 2 to 4 h until visibly turbid. OD600 of the cultures was then measured, and working cultures prepared at an OD600 of 0.01-0.07 and grown for 50-145 min at 37° C.+5% CO2 with 500 rpm. Working cultures were then diluted 10× into control and treated aliquots for antibiotic exposure. For validation experiments, antibiotic exposure was performed in 100 μL volumes consisting of 80 μL Mueller Hinton II Broth (Becton Dickinson), 5 μL nuclease-free H2O (NF—H2O), 5 μL 20× antibiotic stock solution, and 10 μL of working culture. In control aliquots, antibiotic stock solution was replaced with NF—H2O. For filtration experiments, antibiotic exposure was performed in 100 μL volumes consisting of 65 μL Mueller Hinton II Broth (Becton Dickinson), 21 μL nuclease-free H2O (NF—H2O), 4 μL 25× antibiotic stock solution, and 10 μL of working culture. In control aliquots, antibiotic stock solution was replaced with NF—H2O.

[2] = system: Klebsiella pneumoniae; test: as above; format: cell-based
Excerpt: as §1, §2

[3] = system: Neisseria gonorrhoeae; test: Minimum inhibitory concentrations (MICs) of Neisseria gonorrhoeae clinical isolates; format: cell-based
Procedure: Isolates and agar-dilution MIC testing. Isolates were provided by the University of Washington Neisseria Reference Laboratory and the Centers for Disease Control (CDC) Antibiotic Resistance Isolate Bank Neisseria gonorrhoeae panel (SINuca-Table). MICs of the CDC AR Isolate Bank are reported by the CDC [10], and MIC of all other isolates were determined by agar dilution according to the Clinical and Laboratory Standards Institute (CLSI) guidelines.

[4] = system: E. coli isolates; test: pol-aAST, comparison of LAMP and qPCR amplification (Example 26); format: cell-based, Escherichia coli; settings: 0.5 μg/mL ertapenem for 15 min
Procedure: Comparison of amplification methods. In order to compare amplification using LAMP and PCR, E. coli isolates were exposed to 0.5 μg/mL ertapenem for 15 min. Samples were then transferred directly into either PCR or LAMP mix on ice. Amplification was started immediately. Quantitative PCR (qPCR) was performed on a Roche LightCycler 96 using SsoFast EvaGreen Supermix (BioRad, Hercules, CA, USA). 10 μL reactions were used. 10% of the final reaction volume was template. Published primers were used at a final concentration of 500 nM. Cycling conditions consisted of 3.0 min at 95° C., followed by 35 cycles of 95° C. for 10 sec, 60° C. for 10 sec, and 72° C. for 15 sec. Fluorescence was measured using the SYBR Green channel after each 72° C. extension step. LAMP was performed on a BioRad CFX96 using the following conditions: 10 μL reaction volume containing 1× Isothermal Reaction Buffer II (NEB), 5 mM MgSO4 (NEB), 1.4 mM dNTPs (NEB), 320 U/mL Bst 3.0 (NEB), and 2 μM Syto-9 (Thermo Fisher). 10% of the reaction volume was template. Primer sequences and concentrations have been described previously. Cycling conditions consisted of 2.0 min at 12° C. (while lid was heating), followed by 120 cycles of 70° C. for 10 sec. Fluorescence was measured using the SYBR Green channel every 10 sec (after each cycle).
To test this, pol-aAST is performed in this example using LAMP, and quantitative PCR (qPCR) (FIG. 48). […]

[5] = system: E. coli isolates; test: Quantification of DNA release following antibiotic exposure, filtration and ddPCR (Example 27); format: cell-based, Escherichia coli; parameters: dose or concentration left out as unconfirmed; settings: 15 min exposure, 0.22 μm filtration, ddPCR
Procedure: Filtration experiments. Filtration experiments were performed using E. coli isolates exposed to 0.5 μg/mL ertapenem for 15 min. Immediately following exposure, cultures were passed through 0.22 μm, 1.5 mL cellulose acetate centrifuge tube filters (Corning Costar Spin-X, Corning, NY) by adding 50 μL of sample to the filter and centrifuging for 4 minutes at 1000 ref. DNA was extracted from both the feed and filtrate using QuickExtract DNA Extraction Solution (Lucigen, Middleton, WI, USA). Samples were diluted 10× into extraction buffer and extracted according to manufacturer instructions. The concentration of the single copy E. coli uidA gene was then quantified in the feed and filtrate extractions. The percentage of E. coli DNA in the filtrate was calculated as the filtrate concentration divided by the feed concentration. Droplet digital PCR (ddPCR) was performed using QX200 ddPCR Supermix for EvaGreen (BioRad). 10% of the final reaction volume was template. Published primers targeting the uidA gene in E. coli were used at a final concentration of 500 nM. Cycling conditions consisted of 5.0 min at 95° C., followed by 40 cycles of 95° C. for 30 sec, 60° C. for 30 sec, and 72° C. for 30 sec., with final dye stabilization steps of 4° C. for 5.0 min followed by 90° C. for 5.0 min.
To investigate the mechanism of pol-aAST, experiments were performed to separate free NAs from NAs contained within structurally intact cells or associated with cell debris. Susceptible and resistant clinical isolates were exposed to β-lactams for 15 min, then filtered through […] filters to remove cells from free NAs. NAs in the sample and eluate were then quantified using droplet digital PCR (ddPCR).

[6] = system: Ng isolates; test: Percentage of cell lysis due to enhancer alone (Example 33); format: cell-based, Neisseria gonorrhoeae; settings: Ng clinical isolates (12 for BAC); no antibiotic
Procedure: Enhancer use. Working cultures of Ng isolates were prepared as described in “Ng culture preparation.” Initial exposure was performed by incubating 100 μL control and treated samples at 37° C. in PCR tube strips on a BioRad C1000 Thermal Cycler. Treated samples consisted of 75 μL MHB, 5 μL NaHCO3 (100 mM), 5 μL DNase I (2 U/μL), 5 μL PEN or CRO (20 μg/mL), and […] working Ng isolate culture. ABX were replaced with NF—H2O in control samples. After 15 min of incubation, samples were vortexed and quick-spun, and aliquots of all samples were transferred to the enhancement step as described below. After the enhancement step, 5 or 10 μL of all samples were extracted by diluting 10× in QuickExtract DNA Extraction Solution (Lucigen) and heating for 6 min at 65° C. followed by 4 min at 98° C. on a BioRad C1000 Thermal Cycler. All sample handling following ABX exposure was performed using a multichannel pipette; qPCR and calculation of % accessibility was performed as described above.
Osmotic and autolytic enhancing steps were performed in 100 μL volumes. The osmotic enhancing step consisted of 89.75 μL NF—H2O, 4.75 μL DNase I (2 U/μL), 0.5 μL CaCl (100 mM, 0.2-μM filtered), and 5 μL initial exposure samples. […]

## CC1(C)S[C@@H]2[C@H](NC(=O)[C@H](N)c3ccccc3)C(=O)N2[C@H]1C(=O)O [AMP, ampicillin]
[1]; isolate Ec_1
  Antibiotic MICs: 4 µg/mL
[1]; isolate Ec_2
  Antibiotic MICs: <=2 μg/mL
[1]; isolate Ec_3
  Antibiotic MICs: <=2 μg/mL
[1]; isolate Ec_4
  Antibiotic MICs: <=2 μg/mL
[1]; isolate Ec_39
  Antibiotic MICs: >=32 μg/mL
[1]; isolate Ec_40
  Antibiotic MICs: >=32 μg/mL
[2]; isolate Kp_7
  Antibiotic MICs: >32 µg/mL
[2]; isolate Kp_8
  Antibiotic MICs: >32 µg/mL

## C=CC1=C(C(=O)O)N2C(=O)[C@@H](NC(=O)/C(=N\OCC(=O)O)c3csc(N)n3)[C@H]2SC1 [CFM, cefixime]
[3]; isolate ng_1
  Antibiotic MICs: ≤0.015 µg/mL
[3]; isolate ng_2
  Antibiotic MICs: ≤0.015 µg/mL
[3]; isolate ng_3
  Antibiotic MICs: ≤0.015 µg/mL
[3]; isolate ng_4
  Antibiotic MICs: 0.060 µg/mL
[3]; isolate ng_5
  Antibiotic MICs: 0.030 µg/mL
[3]; isolate ng_6
  Antibiotic MICs: 0.015 µg/mL
[3]; isolate ng_12
  Antibiotic MICs: 0.030 µg/mL
[3]; isolate ng_15
  Antibiotic MICs: ≤0.015 µg/mL
[3]; isolate ng_16
  Antibiotic MICs: ≤0.015 µg/mL
[3]; isolate ng_17
  Antibiotic MICs: ≤0.015 µg/mL
[3]; isolate ng_18
  Antibiotic MICs: 0.060 µg/mL
[3]; isolate ng_19
  Antibiotic MICs: 0.030 µg/mL
[3]; isolate ng_20
  Antibiotic MICs: ≤0.015 µg/mL
[3]; isolate ng_30
  Antibiotic MICs: 1.000 µg/mL
[3]; isolate ng_41
  Antibiotic MICs: 0.250 µg/mL
[3]; isolate ng_44
  Antibiotic MICs: ≤0.015 µg/mL

## C[C@@H](O)[C@H]1C(=O)N2C(C(=O)O)=C(S[C@@H]3CN[C@H](C(=O)Nc4cccc(C(=O)O)c4)C3)[C@H](C)[C@H]12 [ETP, ertapenem]
[1]; isolate Ec_1
  Antibiotic MICs: <=.5 μg/mL
[1]; isolate Ec_2
  Antibiotic MICs: <=.5 μg/mL
[1]; isolate Ec_3
  Antibiotic MICs: <=.5 μg/mL
[1]; isolate Ec_4
  Antibiotic MICs: <=.5 μg/mL
[1]; isolate Ec_38
  Antibiotic MICs: >4 µg/mL
[1]; isolate Ec_39
  Antibiotic MICs: 2 µg/mL
[1]; isolate Ec_40
  Antibiotic MICs: 2 µg/mL
[1]; isolate Ec_41
  Antibiotic MICs: 2 µg/mL
[2]; isolate Kp_1
  Antibiotic MICs: <=.5 μg/mL
[2]; isolate Kp_2
  Antibiotic MICs: <=.5 μg/mL
[2]; isolate Kp_7
  Antibiotic MICs: >8 µg/mL
[2]; isolate Kp_8
  Antibiotic MICs: >8 µg/mL
[4]; susceptible E. coli isolate
  time-to-positive difference (TTPD) between control and treated aliquots, LAMP: 1.02 min
[4]; two susceptible and two resistant E. coli isolates
  difference in Cq between control and treated samples, qPCR: none of which showed a statistically significant difference in Cq
[5]
  average percentage of DNA released from susceptible isolates: 15%

## C[C@@H](O)[C@H]1C(=O)N2C(C(=O)O)=C(S[C@@H]3CN[C@H](C(=O)N(C)C)C3)[C@H](C)[C@H]12 [meropenem]
[5]
  average percentage of DNA released from susceptible isolates: 21%

## benzalkonium chloride [BAC]
[6]
  average percentage lysis by 5-min incubation with the enhancer alone: 91.6%
